Assay results: US20050136006A1, “Quantitative assay of the angiogenic and antiangiogenic activity of a test molecule” (Government of the U.S.A.,represented by the Secretary, …, priority 2002, published 2005)
Several values for one entry are separate records, joined by “and”; a condition that tells them apart may be missing. Identical values can stand only once.

Legend:
[1] = tested on: endothelial cell proliferation in the CAM; assay: CAM-XTT cell proliferation assay, spectrophotometrical absorbance; type: in vivo, chicken; conditions: FGF 2.0 μg/mL disc; systemic 100 μM Fumagillin or 3 mg/mL LM609; relative to FGF + 0.1% DMSO carrier
Description: Ten 10-day old eggs were divided into four groups and prepared as in Example 1. The eggs received (A) filter disks saturated with a vehicle solution (0.1% bovine serum albumin (BSA)/phosphate-buffered saline (PBS)) and systemic injection of a carrier solution (0.1% DMSO), (B) filter disks saturated with a stimulator solution (2.0 μg/mL FGF) and systemic injection of carrier solution (0.1% DMSO), (C) filter disks saturated with a stimulator solution (2.0 μg/mL FGF) and systemic injection of an inhibitor (100 μM Fumagillin), or (D) filter disks saturated with a stimulator solution (2.0 μg/mL FGF) and systemic injection of an inhibitor (3 mg/mL LM609). […]
XTT is a tetrazolium salt, which is reduced within the mitochondria of metabolically active cells to form a colored formazan dye. The amount of formazan dye produced is quantitatively measured by spectrophotometrical absorbance (e.g., by an ELISA plate reader) at 450-500 nm. […]
5 mL of XTT labeling reagent and 0.1 mL electron coupling reagent were mixed together and 30 μL of the mixture was applied onto the CAM disk via pipette. […] At Day 13, the disks were harvested for light photomicroscopy and the mean spectrophotometrical absorbance at 450 nm was measured (reference wavelength 620 nm (Titertek Multiskan Ascent Plate Reader)).

[2] = tested on: chorioallantoic membrane tissue of an embryonated chicken egg; assay: Modified CAM assay, fluorescent vascular density (FVD) by laser confocal microscopy after FITC-Dextran injection; type: in vivo; set-up: FVD Group Mean / FVD: scale not given here; conditions: for FVD: individual eggs
Description: Eighteen 10-day-old embryonated chicken eggs were obtained. A window was made in the shell of each egg. The chorioallantoic membranes were dropped to allow placement of a filter paper disc saturated with either basic fibroblast growth factor (bFGF) (1 μg/ml), as an angiogenic stimulator, or with a control solution (Clonetics EBM-2 media, Bio-Whittaker, Walersville, Md.). Twenty-four hours were allowed to elapse and a vessel was cannulated in each egg. Embryos that had received a filter disc saturated with bFGF then received a systemic injection of either Fumagillin (5 μg/egg, Calbiochem, San Diego, Calif.) in 0.1% dimethyl sulfoxide (DMSO) (Group A, n=3), or an injection of 0.1% DMSO carrier alone (Group B, n=5). Fumagillin is an organic compound with established antiangiogenic effects (see, e.g., Ingber et al., Nature, 348:555-557 (1990)). Embryos that had received a filter disc saturated with the control molecule received 0. 1% DMSO carrier injected systemically (Group C, n=10).
Forty-eight hours were allowed to elapse, and all eggs then received a systemic injection of fluorescein isothiocyanate (FITC)-Dextran (1 mg/ml), which was allowed to circulate for 30 minutes. Filter discs and associated CAM tissue (i.e., the region of interest) were excised from the egg and preserved in 10% formalin. The filter disc and region of interest were then laid out on a glass microscope slide and viewed using a laser confocal microscope (LSM 510 Laser Scanning Microscope, Carl Zeiss, Inc., Thronwood, N.Y.). The filter disc and region of interest were stimulated with an argon laser emitting at a wavelength of 488 nm. The resultant excitation was read using fluorescence filters at wavelengths of 505 nm and greater. The image was captured using LSM 5 Pascal software (Carl Zeiss, Inc.), through a microscope objective of 1.25×. The capture image data was formatted as 1024 pixels wide by 1024 pixels long, resulting in an overall image of 1,048,576 pixels, each with a brightness measured on a scale from 0 to 255. Multiple cross-sectional images were taken along a three-dimensional z-axis at 200 micron intervals through each filter disc and region of interest from each egg. Each filter disc and region of interest was thereby determined to have a fluorescent vascular density reflective of the density of vasculature of the CAM tissue associated with the filter disc. One filter disc in Group C was eliminated from analysis owing to gross extravasation of fluorescein, rendering it unreadable (represented by “-” in Table 1).

[3] = tested on: filter discs and associated CAM tissue; assay: CAM assay scored from light microscopic photographs by blinded observers; type: in vivo, chicken; set-up: scale not given here; conditions: for Score: individual discs
Description: However, instead of using laser confocal microscopy to determine an FVD value for a test region of interest, the filter discs and associated CAM tissue were photographed under light microscopy. The light microscopic photographs were evaluated independently by three blinded observers, all experts in the study of angiogenesis. […] If the blinded observer felt that a disc had too much hemorrhage or artifact to make an accurate assessment of angiogenesis, it was eliminated from that observer's assessment (represented by a “-” in Tables 2-4).

[4] = Table 2, one blinded observer, Group A: bFGF disc + Fumagillin 5 μg/egg
[5] = Table 3, one blinded observer, Group A: bFGF disc + Fumagillin 5 μg/egg
[6] = Table 4, one blinded observer, Group A: bFGF disc + Fumagillin 5 μg/egg
[7] = Table 2, one blinded observer, Group B: bFGF disc + 0.1% DMSO carrier
[8] = Table 3, one blinded observer, Group B: bFGF disc + 0.1% DMSO carrier
[9] = Table 4, one blinded observer, Group B: bFGF disc + 0.1% DMSO carrier

Compound | effect on spectrophotometrical absorbance (450 nm) of FGF-stimulated specimens [1] | FVD ([2]; Treatment Group A: bFGF (1 μg/ml) filter disc, systemic Fumagillin 5 μg/egg in 0.1% DMSO, 48 h) | FVD Group Mean ([2]; Treatment Group A: bFGF (1 μg/ml) filter disc, systemic Fumagillin 5 μg/egg in 0.1% DMSO, n=3) | effect on fluorescent vascular density of bFGF-stimulated specimens ([2]; systemic injection, on average, relative to bFGF stimulation + control molecule (Group B)) | Score Group Mean [3, 4] | Score [3, 4] | Score Group Mean [3, 5] | Score [3, 5] | Score Group Mean [3, 6] | Score [3, 6] | FVD ([2]; Treatment Group B: bFGF (1 μg/ml) filter disc, systemic 0.1% DMSO carrier alone) | FVD Group Mean ([2]; Treatment Group B: bFGF (1 μg/ml) filter disc, systemic 0.1% DMSO carrier alone, n=5) | Score Group Mean [3, 7] | Score [3, 7] | Score Group Mean [3, 8] | Score [3, 8] | Score Group Mean [3, 9] | Score [3, 9]
CO[C@@H]1[C@H](OC(=O)/C=C/C=C/C=C/C=C/C(=O)O)CC[C@]2(CO2)[C@H]1[C@@]1(C)O[C@@H]1CC=C(C)C [Fumagillin] | reduced the spectrophotometrical absorbance | 0.0673 and 0.0533 and 1.5029 | 0.5412 | reduce the fluorescent vascular density | 2 | 2 | 2.7 | 2 and 3 (2×) | 2 | 3 and 2 and 1 |  |  |  |  |  |  |  | 
basic fibroblast growth factor [bFGF] |  |  |  |  |  |  |  |  |  |  | 2.5401 and 3.7715 and 1.9767 and 0.6873 and 2.6344 | 2.322 | 1.8 | 2 (2×) and 3 and 1 (2×) | 2.4 | 2 and 3 (3×) and 1 | 2.2 | 2 (2×) and 3 (2×) and 1
